Test results reported in ChEMBL document CHEMBL3885881, “DrugMatrix”.

Species: Rattus norvegicus
Assay: DrugMatrix - Regimen: Daily Repeat
Type: toxicity, organism-based, Sprague-Dawley
Parameters: regimen Daily Repeat, gender Male, age 6-8 weeks
Conditions: in vivo, po, route oral GAVAGE, […]; for ABSOLUTE BASOPHIL / ABSOLUTE EOSINOPHIL / ABSOLUTE MONOCYTE / ABSOLUTE SEGMENTED NEUTROPHIL / BASOPHIL / EOSINOPHIL / ERYTHROCYTE COUNT / HEMATOCRIT / HEMOGLOBIN / LEUKOCYTE COUNT / LYMPHOCYTE / MEAN CORPUSCULAR HEMOGLOBIN / MEAN CORPUSCULAR HEMOGLOBIN CONCENTRATION / MEAN CORPUSCULAR VOLUME / MONOCYTE / NEUTROPHIL / NUCLEATED RED BLOOD CELLS / PLATELET COUNT: tissue Blood
[1] = 100 mg/kg, 120 h, tissue Plasma, dose level Low, time 5 day
[2] = 750 mg/kg, 72 h, dose level High, time 3 day
[3] = 750 mg/kg, 72 h, tissue Plasma, dose level High, time 3 day
[4] = 750 mg/kg, 120 h, dose level High, time 5 day
[5] = 750 mg/kg, 120 h, tissue Plasma, dose level High, time 5 day

## COc1cc([C@@H]2c3cc4c(cc3[C@@H](O[C@@H]3O[C@@H]5CO[C@@H](C)O[C@H]5[C@H](O)[C@H]3O)[C@H]3COC(=O)[C@H]23)OCO4)cc(OC)c1O [ETOPOSIDE]
[1]
  PHOSPHORUS: 9.87 mg/dL
  POTASSIUM: 5.33 MEQ/L
  SODIUM: 145.8 MEQ/L
  TOTAL BILIRUBIN: 0.1 mg/dL
  TOTAL PROTEIN: 5.6 G/DL
  URIC ACID: 0.4 mg/dL
[2]
  ABSOLUTE BASOPHIL: 0 CELLS/uL
  ABSOLUTE EOSINOPHIL: 0 CELLS/uL
  ABSOLUTE MONOCYTE: 23 CELLS/uL
  ABSOLUTE SEGMENTED NEUTROPHIL: 326.67 CELLS/uL
  BASOPHIL: 0%
  EOSINOPHIL: 0%
  ERYTHROCYTE COUNT: 4.79 x10E6/uL
  HEMATOCRIT: 30.9%
  HEMOGLOBIN: 12.47 G/DL
  LEUKOCYTE COUNT: 4 x10E3/uL
  LYMPHOCYTE: 91.33%
  MEAN CORPUSCULAR HEMOGLOBIN: 26 pg
  MEAN CORPUSCULAR HEMOGLOBIN CONCENTRATION: 40.33 G/DL
  MEAN CORPUSCULAR VOLUME: 64.5 fL
  MONOCYTE: 0.67%
  NEUTROPHIL: 8%
  NUCLEATED RED BLOOD CELLS: 0 /100WBC
  PLATELET COUNT: 1133.33 x10E3/uL
[3]
  ALANINE AMINOTRANSFERASE: 36.33 u/L
  ALBUMIN: 3.77 G/DL
  ASPARTATE AMINOTRANSFERASE: 71 u/L
  BLOOD UREA NITROGEN: 9 mg/dL
  CARBON DIOXIDE: 26 mmol/L
  CHOLESTEROL: 79.67 mg/dL
  CREATINE PHOSPHOKINASE: 235.33 u/L
  CREATININE: 0.1 mg/dL
  GLUCOSE: 189 mg/dL
  LACTATE DEHYDROGENASE: 94.67 u/L
  LIPASE: 11.33 u/L
  PHOSPHORUS: 11.07 mg/dL
  POTASSIUM: 4.56 MEQ/L
  SODIUM: 142.5 MEQ/L
  TOTAL BILIRUBIN: 0.1 mg/dL
  TOTAL PROTEIN: 5.4 G/DL
  URIC ACID: 0.37 mg/dL
[4]
  ABSOLUTE BASOPHIL: 0 CELLS/uL
  ABSOLUTE EOSINOPHIL: 0 CELLS/uL
  ABSOLUTE MONOCYTE: 44.5 CELLS/uL
  ABSOLUTE SEGMENTED NEUTROPHIL: 165.5 CELLS/uL
  BASOPHIL: 0%
  EOSINOPHIL: 0%
  ERYTHROCYTE COUNT: 6.19 x10E6/uL
  HEMATOCRIT: 38.1%
  HEMOGLOBIN: 15.5 G/DL
  LEUKOCYTE COUNT: 2.85 x10E3/uL
  LYMPHOCYTE: 93%
  MEAN CORPUSCULAR HEMOGLOBIN: 25.05 pg
  MEAN CORPUSCULAR HEMOGLOBIN CONCENTRATION: 40.7 G/DL
  MEAN CORPUSCULAR VOLUME: 61.55 fL
  MONOCYTE: 1.5%
  NEUTROPHIL: 5.5%
  NUCLEATED RED BLOOD CELLS: 0 /100WBC
  PLATELET COUNT: 975 x10E3/uL
[5]
  ALANINE AMINOTRANSFERASE: 21.5 u/L
  ALBUMIN: 4.1 G/DL
  ASPARTATE AMINOTRANSFERASE: 87 u/L
  BLOOD UREA NITROGEN: 106.5 mg/dL
  CARBON DIOXIDE: 28 mmol/L
  CHLORIDE: 92 MEQ/L
  CHOLESTEROL: 83.5 mg/dL
  CREATINE PHOSPHOKINASE: 328.5 u/L
  CREATININE: 0.69 mg/dL
  GLUCOSE: 115 mg/dL
  LACTATE DEHYDROGENASE: 82 u/L
  LIPASE: 10 u/L
  PHOSPHORUS: 9.8 mg/dL
  POTASSIUM: 6.46 MEQ/L
  SODIUM: 133.6 MEQ/L
  TOTAL BILIRUBIN: 0.15 mg/dL
  TOTAL PROTEIN: 6.3 G/DL
  URIC ACID: 0.35 mg/dL
